Each compound was assayed against recombinant DYRK1A kinase (Homo sapiens (Human), UniProt Q13627) (assay: DYRK1A kinase assay (Ser/Thr 18 peptide Z-lyte FRET assay)). Details: DYRK1A 0.25 μg/mL, ATP 15 μM, Ser/Thr peptide 18 4 μM; one hour at room temperature; 11-point dose-response, duplicate.
Format: biochemical
How it was run: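 Z-lyte FRET assay on Ser/Thr 18 peptide, kinase activity read as coumarin/fluorescein emission ratio; compounds incubated 1 h at room temperature, then development reagent 1 h, in duplicate. Phosphorylated and unphosphorylated peptide served as controls; IC50 by non-linear regression of dose-response curves.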

IC50 [nM]	Compound
1	CNc1nc(N[C@@H]2CCN(C(C)=O)CC2(F)F)nn2ccc(-c3ccc4nc(C)n(CC(F)(F)F)c4n3)c12 [Compound 1024, (R)-1-(3,3-Difluoro-4-((5-(2-methyl-3-(2,2,2-trifluoroethyl)-3H-imidazo[4,5-b]pyridin-5-yl)-4-(methylamino)pyrrolo[2,1-f][1,2,4]triazin-2-yl)amino)piperidin-1-yl)ethan-1-one]
10.1	CNc1nc(NC2CCC(F)(F)CC2)nn2ccc(-c3ccc4nnn(CC(F)F)c4n3)c12 [Compound 1025, N^2-(4,4-Difluorocyclohexyl)-5-(3-(2,2-difluoroethyl)-3H-[1,2,3]triazolo[4,5-b]pyridin-5-yl)-N^4-methylpyrrolo[2,1-f][1,2,4]triazine-2,4-diamine]
0.3	CNc1nc(N[C@@H]2CN(C(C)=O)C[C@@H]2F)nn2ccc(-c3ccc4nnn(CC(F)F)c4n3)c12 [Compound 1026, 1-((3R,4S)-3-((5-(3-(2,2-Difluoroethyl)-3H-[1,2,3]triazolo[4,5-b]pyridin-5-yl)-4-(methylamino)pyrrolo[2,1-f][1,2,4]triazin-2-yl)amino)-4-fluoropyrrolidin-1-yl)ethan-1-one]
0.6	CNc1nc(N[C@@H]2CN(C)CC2(F)F)nn2ccc(-c3ccc4nnn(CC(F)F)c4n3)c12 [Compound 1027, (R)—N^2-(4,4-Difluoro-1-methylpyrrolidin-3-yl)-5-(3-(2,2-difluoroethyl)-3H-[1,2,3]triazolo[4,5-b]pyridin-5-yl)-N^4-methylpyrrolo[2,1-f][1,2,4]triazine-2,4-diamine]
1.3	CNc1nc(N[C@@H]2CN(C3COC3)CC2(F)F)nn2ccc(-c3ccc4nnn(CC(F)F)c4n3)c12 [Compound 1028, (R)—N^2-(4,4-Difluoro-1-(oxetan-3-yl)pyrrolidin-3-yl)-5-(3-(2,2-difluoroethyl)-3H-[1,2,3]triazolo[4,5-b]pyridin-5-yl)-N^4-methylpyrrolo[2,1-f][1,2,4]triazine-2,4-diamine]
1.3	CNc1nc(N[C@@H]2CCN(C(C)=O)CC2(F)F)nn2ccc(-c3ccc4nnn(CC(F)F)c4n3)c12 [Compound 1029, (R)-1-(4-((5-(3-(2,2-Difluoroethyl)-3H-[1,2,3]triazolo[4,5-b]pyridin-5-yl)-4-(methylamino)pyrrolo[2,1-f][1,2,4]triazin-2-yl)amino)-3,3-difluoropiperidin-1-yl)ethan-1-one]
4	CNc1nc(N[C@H]2CC[C@](C)(O)CC2)nn2ccc(-c3ccc4nnn(CC(F)(F)F)c4n3)c12 [Compound 1031, (1r,4r)-1-Methyl-4-((4-(methylamino)-5-(3-(2,2,2-trifluoroethyl)-3H-[1,2,3]triazolo[4,5-b]pyridin-5-yl)pyrrolo[2,1-f][1,2,4]triazin-2-yl)amino)cyclohexan-1-ol]
2.8	CNc1nc(N[C@H]2CCN(C(C)=O)C[C@H]2F)nn2ccc(-c3ccc4nnn(CC(F)(F)F)c4n3)c12 [Compound 1032, 1-((3R,4S)-3-Fluoro-4-((4-(methylamino)-5-(3-(2,2,2-trifluoroethyl)-3H-[1,2,3]triazolo[4,5-b]pyridin-5-yl)pyrrolo[2,1-f][1,2,4]triazin-2-yl)amino)piperidin-1-yl)ethan-1-one]
2	CNc1nc(N[C@H]2CCN(C3COC3)C[C@H]2F)nn2ccc(-c3ccc4nnn(CC(F)(F)F)c4n3)c12 [Compound 1033, N^2-((3R,4S)-3-Fluoro-1-(oxetan-3-yl)piperidin-4-yl)-N^4-methyl-5-(3-(2,2,2-trifluoroethyl)-3H-[1,2,3]triazolo[4,5-b]pyridin-5-yl)pyrrolo[2,1-f][1,2,4]triazine-2,4-diamine]
1.9	CNc1nc(N[C@@H]2CCN(C)CC2(F)F)nn2ccc(-c3ccc4nnn(CC(F)(F)F)c4n3)c12 [Compound 1034, (R)—N^2-(3,3-Difluoro-1-methylpiperidin-4-yl)-N^4-methyl-5-(3-(2,2,2-trifluoroethyl)-3H-[1,2,3]triazolo[4,5-b]pyridin-5-yl)pyrrolo[2,1-f][1,2,4]triazine-2,4-diamine]
1	CNc1nc(N[C@@H]2CCN(C3COC3)CC2(F)F)nn2ccc(-c3ccc4nnn(CC(F)(F)F)c4n3)c12 [Compound 1036, (R)—N^2-(3,3-Difluoro-1-(oxetan-3-yl)piperidin-4-yl)-N^4-methyl-5-(3-(2,2,2-trifluoroethyl)-3H-[1,2,3]triazolo[4,5-b]pyridin-5-yl)pyrrolo[2,1-f][1,2,4]triazine-2,4-diamine]
270	N^4-Methyl-N^2-(1-(oxetan-3-yl)piperidin-4-yl)-5-(pyrazolo[1,5-a]pyridin-5-yl)pyrrolo[2,1-f][1,2,4]triazine-2,4-diamine [Compound 2]

Compound	IC50 [nM]
N^2-(4,4-Difluorocyclohexyl)-N^4-methyl-5-(3-(2,2,2-trifluoroethyl)-3H-[1,2,3]triazolo[4,5-b]pyridin-5-yl)pyrrolo[2,1-f][1,2,4]triazine-2,4-diamine [Compound 1030]	193

Reference: patent publication US20240199649A1 (Biosplice Therapeutics, Inc., priority 2022, published 2024)
